This passage reports IC50 results from patent publication US9533987B2, “Heterocyclic derivates” (KALVISTA PHARMACEUTICALS LIMITED, priority 2013, dated 2017).

Some results are limits rather than exact numbers.

The target in one assay is Human KLK1 (Homo sapiens (Human), UniProt P06870). The assay is described as follows: Determination of the IC50 for KLK1 (fluorogenic substrate H-DVal-Leu-Arg-AFC). The format is biochemical. Conditions: 37° C. The protocol: Determination of the IC50 for KLK1
Human KLK1 (Callbiochem) was incubated at 37° C. with the fluorogenic substrate H-DVal-Leu-Arg-AFC and various concentrations of the test compound. Residual enzyme activity (initial rate of reaction) was determined by measuring the change in […] at 410 nm and the IC50 value for the test compound was determined.

The target in a further assay is Human plasma kallikrein (Homo sapiens (Human), UniProt P03952). The assay is described as follows: Determination of the IC50 for plasma kallikrein (fluorogenic substrate H-DPro-Phe-Arg-AFC). The format is biochemical. Conditions: 37° C., read-out: IC50 (human PKaI). The protocol: Determination of the IC50 for Plasma Kallikrein
Human plasma kallikrein, sequence (P03952 391-638): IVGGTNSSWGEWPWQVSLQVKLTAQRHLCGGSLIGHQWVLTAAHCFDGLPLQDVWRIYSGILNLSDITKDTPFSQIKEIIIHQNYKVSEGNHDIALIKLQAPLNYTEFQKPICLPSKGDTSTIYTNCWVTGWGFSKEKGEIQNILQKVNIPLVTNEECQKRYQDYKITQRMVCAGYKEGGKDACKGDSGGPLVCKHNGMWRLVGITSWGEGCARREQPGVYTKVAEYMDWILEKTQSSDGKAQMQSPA
Human plasma kallikrein, sequence (P03952 20-390 partner): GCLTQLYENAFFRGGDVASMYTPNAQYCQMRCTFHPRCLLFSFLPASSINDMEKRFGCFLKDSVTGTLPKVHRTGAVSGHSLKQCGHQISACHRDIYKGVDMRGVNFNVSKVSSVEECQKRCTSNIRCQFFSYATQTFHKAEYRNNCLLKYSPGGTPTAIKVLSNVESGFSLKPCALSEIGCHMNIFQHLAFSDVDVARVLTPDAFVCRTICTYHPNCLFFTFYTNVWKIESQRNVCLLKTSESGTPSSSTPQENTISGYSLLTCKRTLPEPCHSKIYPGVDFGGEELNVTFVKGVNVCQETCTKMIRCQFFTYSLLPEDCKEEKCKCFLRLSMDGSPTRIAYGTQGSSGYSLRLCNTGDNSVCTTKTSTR
Human plasma kallikrein (Protogen) was incubated at 37° C. with the fluorogenic substrate H-DPro-Phe-Arg-AFC and various concentrations of the test compound. Residual enzyme activity (initial rate of reaction) was determined by measuring the change in […] at 410 nm and the IC50 value for the test compound was determined.

Human KLK1, sequence (P06870 25-262): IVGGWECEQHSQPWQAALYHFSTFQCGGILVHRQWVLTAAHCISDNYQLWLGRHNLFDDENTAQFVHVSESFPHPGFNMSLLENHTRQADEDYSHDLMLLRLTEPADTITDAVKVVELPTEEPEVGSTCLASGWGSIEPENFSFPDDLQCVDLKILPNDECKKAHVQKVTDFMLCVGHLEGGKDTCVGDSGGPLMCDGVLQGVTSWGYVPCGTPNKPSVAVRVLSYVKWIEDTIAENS

The IC50 is the concentration that inhibits the measured activity by half. Take `Cc1cc(C(=O)NCc2cnc3[nH]ccc3c2)c(C)n1Cc1csc(-c2ccccc2)n1` [Example 3, 2,5-Dimethyl-1-(2-phenyl-thiazol-4-ylmethyl)-1H-pyrrole-3-carboxylic acid (1H-pyrrolo[2,3-b]pyridin-5-ylmethyl)-amide]: the IC50 is over 10000 nM at Human KLK1 and 2690 nM on Human plasma kallikrein.
For `O=C(NCc1cnc2[nH]ccc2c1)c1cn(Cc2ccc(Cn3ccccc3=O)cc2)nc1C(F)(F)F` [Example 7, 1-[4-(2-Oxo-2H-pyridin-1-ylmethyl)-benzyl]-3-trifluoromethyl-1H-pyrazole-4-carboxylic acid (1H-pyrrolo[2,3-b]pyridin-5-ylmethyl)-amide] the same measures were over 10000 nM and 5.38 nM.
For `Cc1nc2[nH]ccc2c(C)c1CNC(=O)c1cn(Cc2ccc(Cn3ccccc3=O)cc2)nc1C(F)(F)F` [Example 8, 1-[4-(2-Oxo-2H-pyridin-1-ylmethyl)-benzyl]-3-trifluoromethyl-1H-pyrazole-4-carboxylic acid (4,6-dimethyl-1H-pyrrolo[2,3-b]pyridin-5-ylmethyl)-amide] the same measures were over 10000 nM and 3.72 nM.
Turning to `Cc1cnn(Cc2ccc(Cn3c(C)cc(C(=O)NCc4ccc5c(N)nccc5c4)c3C)cc2)c1` [Example 9, 2,5-Dimethyl-1-[4-(4-methyl-pyrazol-1-ylmethyl)-benzyl]-1H-pyrrole-3-carboxylic acid (1-amino-isoquinolin-6-ylmethyl)-amide], the half-inhibitory concentration (IC50) against Human KLK1 was over 10000 nM; on Human plasma kallikrein, 14.3 nM.
For `Cc1cnn(Cc2ccc(Cn3cnc(C(=O)NCc4ccc5c(N)nccc5c4)c3)cc2)c1` [Example 10, 1-[4-(4-Methyl-pyrazol-1-ylmethyl)-benzyl]-1H-imidazole-4-carboxylic acid (1-amino-isoquinolin-6-ylmethyl)-amide] the same measures were over 10000 nM and 2.4 nM.
For `Cc1cnn(Cc2ccc(Cn3cc(C(=O)NCc4ccc5c(N)nccc5c4)c(CO)n3)cc2)c1` [Example 15, 3-Hydroxymethyl-1-[4-(4-methyl-pyrazol-1-ylmethyl)-benzyl]-1H-pyrazole-4-carboxylic acid (1-amino-isoquinolin-6-ylmethyl)-amide] the same measures were 6640 nM and 1.17 nM.
For `Cc1cnn(Cc2ccc(Cn3cc(C(=O)NCc4ccc5c(N)nccc5c4)c(C#N)n3)cc2)c1` [Example 16, 3-Cyano-1-[4-(4-methyl-pyrazol-1-ylmethyl)-benzyl]-1H-pyrazole-4-carboxylic acid (1-amino-isoquinolin-6-ylmethyl)-amide] the same measures were 5730 nM and 0.74 nM.
Consider `Cc1cnn(Cc2ccc(Cn3cc(C(=O)NCc4ccc5c(N)nccc5c4)c(C(=O)O)n3)cc2)c1` [Example 17, 4-[(1-Amino-isoquinolin-6-ylmethyl)-carbamoyl]-1-[4-(4-methyl-pyrazol-1-ylmethyl)-benzyl]-1H-pyrazole-3-carboxylic acid], for which the results for the IC50 against Human KLK1 and at Human plasma kallikrein were over 10000 nM and 1190 nM, respectively.
In the same order, the values of `Cc1cnn(Cc2ccc(Cn3cc(C(=O)NCc4ccc5c(N)nccc5c4)c(=O)[nH]3)cc2)c1` [Example 19, 1-[4-(4-Methyl-pyrazol-1-ylmethyl)-benzyl]-3-oxo-2,3-dihydro-1H-pyrazole-4-carboxylic acid (1-amino-isoquinolin-6-ylmethyl)-amide] are over 10000 nM and 994 nM.
Regarding `Cc1cnn(Cc2ccc(Cn3cc(C(=O)NCc4ccc5c(N)nccc5c4)c(-c4c(C)noc4C)n3)cc2)c1` [Example 20, 3-(3,5-Dimethyl-isoxazol-4-yl)-1-[4-(4-methyl-pyrazol-1-ylmethyl)-benzyl]-1H-pyrazole-4-carboxylic acid (1-amino-isoquinolin-6-ylmethyl)-amide], the IC50 at Human KLK1 is over 10000 nM; on Human plasma kallikrein, 0.89 nM.
In the same order, the values of `Cc1cnn(Cc2ccc(Cn3cc(C(=O)NCc4ccc5c(N)nccc5c4)c(N4CCOCC4)n3)cc2)c1` [Example 21, 1-[4-(4-Methyl-pyrazol-1-ylmethyl)-benzyl]-3-morpholin-4-yl-1H-pyrazole-4-carboxylic acid (1-amino-isoquinolin-6-ylmethyl)-amide] are over 10000 nM and 6.46 nM.
For `COc1cc(Cn2cc(C(=O)NCc3ccc4c(N)nccc4c3)c(C3CC3)n2)cnc1N1CCCC1` [Example 25, 3-Cyclopropyl-1-(5-methoxy-6-pyrrolidin-1-yl-pyridin-3-ylmethyl)-1H-pyrazole-4-carboxylic acid (1-amino-isoquinolin-6-ylmethyl)-amide] the same measures were 2210 nM and 7.31 nM.
Turning to `CCOc1ccc(Cn2cc(C(=O)NCc3ccc4c(N)nccc4c3)c(-c3ccccc3)n2)cn1` [Example 26, 1-(6-Ethoxy-pyridin-3-ylmethyl)-3-phenyl-1H-pyrazole-4-carboxylic acid (1-amino-isoquinolin-6-ylmethyl)-amide], the figures for the IC50 against Human KLK1 and on Human plasma kallikrein were 4730 nM and 205 nM, respectively.
For `CCOc1ccc(Cn2cc(C(=O)NCc3ccc4c(N)nccc4c3)c(NC(=O)COC)n2)cn1` [Example 27, 1-(6-Ethoxy-pyridin-3-ylmethyl)-3-(2-methoxy-acetylamino)-1H-pyrazole-4-carboxylic acid (1-amino-isoquinolin-6-ylmethyl)-amide] the same measures were 3200 nM and 128 nM.
In the same order, the values of `CCn1c(C(=O)NCc2ccc3c(N)nccc3c2)cc(C)c1Cc1csc(-c2ccccc2)n1` [Example 29, 1-Ethyl-4-methyl-5-(2-phenyl-thiazol-4-ylmethyl)-1H-pyrrole-2-carboxylic acid (1-amino-isoquinolin-6-ylmethyl)-amide] are over 10000 nM and 620 nM.
In the same order, the values of `Cc1cnn(Cc2ccc(Cn3cc(C(=O)NCc4ccc5c(N)nccc5c4)cn3)cc2)c1` [Example 31, 1-[4-(4-Methyl-pyrazol-1-ylmethyl)-benzyl]-1H-pyrazole-4-carboxylic acid (1-amino-isoquinolin-6-ylmethyl)-amide] are over 10000 nM and 2 nM.
As to `Cc1cnn(Cc2ccc(Cn3cc(C(=O)NCc4ccc5c(N)nccc5c4)c(-c4ccsc4)n3)cc2)c1` [Example 42, 1-[4-(4-Methyl-pyrazol-1-ylmethyl)-benzyl]-3-thiophen-3-yl-1H-pyrazole-4-carboxylic acid (1-amino-isoquinolin-6-ylmethyl)-amide], the concentration for half-maximal inhibition (IC50) against Human KLK1 amounted to 9050 nM; on Human plasma kallikrein it was 4.85 nM.
As to `Nc1nccc2cc(CNC(=O)c3cnn(Cc4ccc(Cn5cccn5)cc4)c3N)ccc12` [Example 53, 5-Amino-1-(4-pyrazol-1-ylmethyl-benzyl)-1H-pyrazole-4-carboxylic acid (1-amino-isoquinolin-6-ylmethyl)-amide], the IC50 is over 10000 nM against Human KLK1 and 16.8 nM at Human plasma kallikrein.
For `C[C@@H]1CCN(c2ccc(Cn3cc(C(=O)NCc4ccc5c(N)nccc5c4)c(C(F)(F)F)n3)cn2)C1` [Example 58, 1-[6-((R)-3-Methyl-pyrrolidin-1-yl)-pyridin-3-ylmethyl]-3-trifluoromethyl-1H-pyrazole-4-carboxylic acid (1-amino-isoquinolin-6-ylmethyl)-amide] the same measures were 3110 nM and 13.3 nM.
In the same order, the values of `Nc1nccc2cc(CNC(=O)c3cn(Cc4cnc(N5CCCC5)nc4)nc3C(F)(F)F)ccc12` [Example 64, 1-(2-Pyrrolidin-1-yl-pyrimidin-5-ylmethyl)-3-trifluoromethyl-1H-pyrazole-4-carboxylic acid (1-amino-isoquinolin-6-ylmethyl)-amide] are 2790 nM and 10.4 nM.
In the same order, the values of `Nc1nccc2cc(CNC(=O)c3cn(Cc4cnc(N5CCCC5)cn4)nc3C(F)(F)F)ccc12` [Example 65, 1-(5-Pyrrolidin-1-yl-pyrazin-2-ylmethyl)-3-trifluoromethyl-1H-pyrazole-4-carboxylic acid (1-amino-isoquinolin-6-ylmethyl)-amide] are 960 nM and 14.9 nM.
On to `CC(C)Oc1cc(Cn2cc(C(=O)NCc3ccc4c(N)nccc4c3)c(C(F)(F)F)n2)ccn1` [Example 66, 1-(2-Isopropoxy-pyridin-4-ylmethyl)-3-trifluoromethyl-1H-pyrazole-4-carboxylic acid (1-amino-isoquinolin-6-ylmethyl)-amide], for which the concentration for half-maximal inhibition (IC50) against Human KLK1 was over 10000 nM; at Human plasma kallikrein, 281 nM.
With `Nc1nccc2cc(CNC(=O)c3cn(Cc4ccc(N5CCC(CO)C5)nc4)nc3C(F)(F)F)ccc12` (centres unmarked) [Example 69, 1-[6-(3-Hydroxymethyl-pyrrolidin-1-yl)-pyridin-3-ylmethyl]-3-trifluoromethyl-1H-pyrazole-4-carboxylic acid (1-amino-isoquinolin-6-ylmethyl)-amide], the 50% inhibitory concentration (IC50) on Human KLK1 was 4740 nM; at Human plasma kallikrein, 32.3 nM.
As for `Nc1nccc2cc(CNC(=O)c3cn(Cc4ccc(N5CC[C@@H](CO)C5)nc4)nc3C(F)(F)F)ccc12` [Example 70, 1-[6-((R)-3-Hydroxymethyl-pyrrolidin-1-yl)-pyridin-3-ylmethyl]-3-trifluoromethyl-1H-pyrazole-4-carboxylic acid (1-amino-isoquinolin-6-ylmethyl)-amide], the IC50 came to 4910 nM at Human KLK1 and 66.9 nM at Human plasma kallikrein.
For `CCCOc1ccc(Cn2cc(C(=O)NCc3ccc4c(N)nccc4c3)c(C(F)(F)F)n2)cn1` [Example 71, 1-(6-Propoxy-pyridin-3-ylmethyl)-3-trifluoromethyl-1H-pyrazole-4-carboxylic acid (1-amino-isoquinolin-6-ylmethyl)-amide] the same measures were over 10000 nM and 63.6 nM.
